Paper PMC5041986 (Oncotarget, 2016)
Like-named read-outs stand apart in the source and are kept apart here.

Columns and labels:
RT-112 cells [1] = experiment: Flow cytometric cell cycle analysis; assay type: cell-based; conditions: flow cytometry; for G0/G1 cell cycle arrest: 4 μM, 24 h; for accumulation of the sub-G1 phase (apoptotic cell death): 48 h to 72 h
Protocol: Cells were seeded in 6-well plates and treated with DMSO or indicated compounds at various concentrations for the indicated times. After treatment, the cells were harvested by trypsinization, washed with PBS, and the pellets were fixed in ice-cold 70% ethanol at -20°C overnight. After centrifugation, the cells were incubated for 15 minutes at room temperature in 0.1 mL of phosphate-citric acid buffer (0.2 M NaHPO4, 0.1 M citric acid, and pH 7.8) and then stained with propidium iodide staining buffer containing Triton X-100 (0.1%, v/v), RNase A (100 μg/mL), and propidium iodide (80 μg/mL) for 30 minutes in the dark. DNA contents were analyzed by flow cytometry with CellQuest software (Becton Dickinson, Mountain View, CA, USA). The results were obtained from three independent experiments and the representative data were shown in Supplementary Figure S8 and S9.

HUVEC = experiment: MTT cell viability assay; assay type: cell-based; conditions: Homo sapiens, HUVEC (normal cell), 72 h
Protocol: (§3) Cells were seeded in 96-well plates and exposed to DMSO, or indicated compounds for 72 hours. Cell viability was assessed using the 3-(4,5-dimethylthiazol-2-yl)-2,5-diphenyltetrazolium bromide (MTT) assay as described previously [46]. Briefly, 100 μl of 0.5 mg/ml MTT were added to each well and incubated at 37°C for 1 hour. After that, 100 μl of extraction reagents (0.1 M sodium acetate buffer for suspension cells or DMSO for attached cells) were added to each well to lyse cells and absorbance at 550 nm was measured. Cell viability was expressed as the percentage of surviving cells in drug-treated versus DMSO-treated control cells (which was considered as 100% viability).

Hep3B cells = experiment: MTT cell viability assay; assay type: cell-based; conditions: 72 h, mean
Protocol: as §3

SNU-16 cells = experiment: MTT cell viability assay; assay type: cell-based; conditions: 72 h; for Viability (% of control cells) SNU-16 (5 μM): mean
Protocol: as §3

PLC/PRF/5 cells = experiment: MTT cell viability assay; assay type: cell-based; conditions: 72 h; for Viability (% of control cells) PLC5/PRF/5 (5 μM): mean
Protocol: as §3

RT-112 cells [2] = experiment: MTT cell viability assay; assay type: cell-based; conditions: 72 h; for Viability (% of control cells) RT-112 (5 μM) / Viability (% of control cells) RT-112 (10 μM): mean
Protocol: as §3

MDA-MB-231 cells = experiment: MTT cell viability assay; assay type: cell-based; conditions: Homo sapiens, MDA-MB-231 (breast), 72 h
Protocol: as §3

FUDDLS cells = experiment: MTT cell viability assay; assay type: cell-based; conditions: Homo sapiens, FUDDLS (sarcoma), 72 h
Protocol: as §3

MCF-7 cells = experiment: MTT cell viability assay; assay type: cell-based; conditions: Homo sapiens, MCF7, MCF-7 (breast), 72 h
Protocol: as §3

RT4 cells = experiment: MTT cell viability assay; assay type: cell-based; conditions: Homo sapiens, RT-4, RT4 (bladder), 72 h
Protocol: as §3

RT-112 tumor xenografts = experiment: RT-112 xenograft model; assay type: in vivo; conditions: for tumor growth inhibition (% TGI): ip, qd, nude mice
Protocol: Tumors were measured weekly using calipers. Tumor volume (mm^3) was calculated from w^2×l/2 (w = width, l= length in mm of the tumor).

FGFR2 = molecular target: T1, FGFR2 (Homo sapiens, UniProt P21802); experiment: KINOMEscan competition-binding assay
T1 construct: purchased DiscoverRx (KINOMEscan service)
Protocol: (§1) The screening is based on a competition-binding assay and the K d values were determined as described previously.

FLT3 = molecular target: T2, FLT3 (Homo sapiens, UniProt P36888); experiment: KINOMEscan competition-binding assay
T2 construct: purchased DiscoverRx (KINOMEscan service)
T2 sequence (P36888 27-993): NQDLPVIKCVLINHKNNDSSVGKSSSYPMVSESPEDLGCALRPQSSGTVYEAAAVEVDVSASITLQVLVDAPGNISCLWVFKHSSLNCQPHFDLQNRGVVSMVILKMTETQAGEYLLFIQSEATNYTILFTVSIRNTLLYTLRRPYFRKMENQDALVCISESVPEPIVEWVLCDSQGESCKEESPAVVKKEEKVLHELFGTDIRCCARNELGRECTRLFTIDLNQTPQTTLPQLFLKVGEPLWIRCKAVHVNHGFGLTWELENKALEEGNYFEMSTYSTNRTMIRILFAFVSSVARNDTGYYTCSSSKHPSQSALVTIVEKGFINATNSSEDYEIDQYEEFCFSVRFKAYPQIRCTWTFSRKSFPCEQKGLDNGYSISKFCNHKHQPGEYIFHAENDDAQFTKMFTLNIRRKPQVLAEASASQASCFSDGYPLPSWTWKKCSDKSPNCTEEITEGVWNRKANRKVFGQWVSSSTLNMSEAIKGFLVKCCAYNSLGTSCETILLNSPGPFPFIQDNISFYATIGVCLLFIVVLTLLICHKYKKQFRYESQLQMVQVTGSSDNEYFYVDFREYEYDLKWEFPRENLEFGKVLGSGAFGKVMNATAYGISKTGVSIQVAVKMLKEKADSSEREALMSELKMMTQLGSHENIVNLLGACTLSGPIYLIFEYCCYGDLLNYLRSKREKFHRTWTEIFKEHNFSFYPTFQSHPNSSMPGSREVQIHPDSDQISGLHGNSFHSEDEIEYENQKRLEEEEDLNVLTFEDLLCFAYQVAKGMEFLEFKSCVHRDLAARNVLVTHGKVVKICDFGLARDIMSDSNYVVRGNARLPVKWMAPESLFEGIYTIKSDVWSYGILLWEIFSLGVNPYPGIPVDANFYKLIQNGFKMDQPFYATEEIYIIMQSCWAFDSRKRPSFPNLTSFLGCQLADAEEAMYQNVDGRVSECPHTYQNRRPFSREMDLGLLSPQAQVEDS
Protocol: as §1

VEGFR2 = molecular target: T3, VEGFR2 (Homo sapiens, UniProt P35968); experiment: KINOMEscan competition-binding assay
T3 construct: purchased DiscoverRx (KINOMEscan service)
T3 sequence (P35968 20-1356): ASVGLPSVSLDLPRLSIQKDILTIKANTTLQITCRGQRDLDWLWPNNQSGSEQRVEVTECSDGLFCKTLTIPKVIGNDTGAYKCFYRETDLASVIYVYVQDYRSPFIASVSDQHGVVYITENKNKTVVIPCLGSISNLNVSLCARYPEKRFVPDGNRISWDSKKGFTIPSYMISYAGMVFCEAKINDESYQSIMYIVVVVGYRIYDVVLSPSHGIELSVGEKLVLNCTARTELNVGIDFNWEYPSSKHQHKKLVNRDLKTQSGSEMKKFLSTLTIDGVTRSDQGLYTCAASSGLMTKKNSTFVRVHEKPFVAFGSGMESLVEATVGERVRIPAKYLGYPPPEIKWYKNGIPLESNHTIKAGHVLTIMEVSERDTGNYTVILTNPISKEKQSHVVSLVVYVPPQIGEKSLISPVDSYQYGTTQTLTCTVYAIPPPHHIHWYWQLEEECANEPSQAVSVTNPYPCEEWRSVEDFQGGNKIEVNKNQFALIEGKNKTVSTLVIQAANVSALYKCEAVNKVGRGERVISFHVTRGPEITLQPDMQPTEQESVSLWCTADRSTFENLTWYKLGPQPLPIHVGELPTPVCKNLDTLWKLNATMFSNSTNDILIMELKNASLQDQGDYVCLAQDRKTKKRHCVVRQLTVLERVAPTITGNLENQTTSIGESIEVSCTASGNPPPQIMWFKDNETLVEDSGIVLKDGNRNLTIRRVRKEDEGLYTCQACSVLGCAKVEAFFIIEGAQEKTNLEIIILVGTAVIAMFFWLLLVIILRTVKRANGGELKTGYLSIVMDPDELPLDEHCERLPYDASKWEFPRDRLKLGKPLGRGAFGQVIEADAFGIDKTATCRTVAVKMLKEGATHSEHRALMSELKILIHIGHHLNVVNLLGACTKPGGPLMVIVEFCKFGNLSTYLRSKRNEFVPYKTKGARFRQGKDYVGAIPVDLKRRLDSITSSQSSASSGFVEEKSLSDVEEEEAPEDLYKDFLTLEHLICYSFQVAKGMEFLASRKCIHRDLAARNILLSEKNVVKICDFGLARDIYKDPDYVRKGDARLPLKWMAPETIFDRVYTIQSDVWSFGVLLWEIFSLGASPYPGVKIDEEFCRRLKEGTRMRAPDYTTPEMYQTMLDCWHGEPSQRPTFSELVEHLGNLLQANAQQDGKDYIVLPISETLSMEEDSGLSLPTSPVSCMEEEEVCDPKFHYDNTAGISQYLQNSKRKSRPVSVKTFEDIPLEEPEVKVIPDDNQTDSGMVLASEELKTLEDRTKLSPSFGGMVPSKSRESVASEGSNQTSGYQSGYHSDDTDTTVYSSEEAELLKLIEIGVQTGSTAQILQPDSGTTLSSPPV
Protocol: as §1

PDGFRB = molecular target: T4, PDGFRB (Homo sapiens, UniProt P09619); experiment: KINOMEscan competition-binding assay
T4 construct: purchased DiscoverRx (KINOMEscan service)
T4 sequence (P09619 33-1106): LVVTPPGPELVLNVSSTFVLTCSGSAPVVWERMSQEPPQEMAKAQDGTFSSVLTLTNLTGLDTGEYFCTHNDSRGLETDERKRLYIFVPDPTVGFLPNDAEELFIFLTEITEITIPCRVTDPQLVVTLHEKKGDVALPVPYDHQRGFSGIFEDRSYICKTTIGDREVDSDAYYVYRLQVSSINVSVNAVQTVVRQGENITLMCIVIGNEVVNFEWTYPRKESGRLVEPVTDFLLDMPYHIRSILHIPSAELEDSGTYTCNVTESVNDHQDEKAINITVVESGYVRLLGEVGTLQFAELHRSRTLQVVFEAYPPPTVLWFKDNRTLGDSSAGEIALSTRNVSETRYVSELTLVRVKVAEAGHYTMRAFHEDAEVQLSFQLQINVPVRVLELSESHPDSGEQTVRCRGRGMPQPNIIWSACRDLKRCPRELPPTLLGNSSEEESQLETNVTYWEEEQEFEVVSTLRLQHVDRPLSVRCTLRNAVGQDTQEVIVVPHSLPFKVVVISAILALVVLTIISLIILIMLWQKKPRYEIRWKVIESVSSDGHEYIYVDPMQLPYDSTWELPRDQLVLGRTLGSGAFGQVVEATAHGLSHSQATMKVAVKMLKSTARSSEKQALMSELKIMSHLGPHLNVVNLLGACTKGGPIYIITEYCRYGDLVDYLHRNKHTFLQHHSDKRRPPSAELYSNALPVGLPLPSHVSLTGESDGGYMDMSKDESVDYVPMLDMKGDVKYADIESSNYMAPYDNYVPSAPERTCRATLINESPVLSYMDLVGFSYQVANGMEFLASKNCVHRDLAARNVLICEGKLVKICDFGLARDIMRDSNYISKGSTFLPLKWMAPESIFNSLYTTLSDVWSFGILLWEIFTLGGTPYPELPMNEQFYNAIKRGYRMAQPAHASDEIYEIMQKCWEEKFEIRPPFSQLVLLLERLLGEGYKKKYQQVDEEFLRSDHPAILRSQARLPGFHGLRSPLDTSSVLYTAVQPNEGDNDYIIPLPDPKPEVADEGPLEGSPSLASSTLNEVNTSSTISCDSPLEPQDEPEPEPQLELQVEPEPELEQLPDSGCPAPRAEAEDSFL
Protocol: as §1

FGFR1 = molecular target: T5, FGFR1 (Homo sapiens, UniProt P11362); experiment: KINOMEscan competition-binding assay
T5 construct: purchased DiscoverRx (KINOMEscan service)
T5 sequence (P11362 22-822): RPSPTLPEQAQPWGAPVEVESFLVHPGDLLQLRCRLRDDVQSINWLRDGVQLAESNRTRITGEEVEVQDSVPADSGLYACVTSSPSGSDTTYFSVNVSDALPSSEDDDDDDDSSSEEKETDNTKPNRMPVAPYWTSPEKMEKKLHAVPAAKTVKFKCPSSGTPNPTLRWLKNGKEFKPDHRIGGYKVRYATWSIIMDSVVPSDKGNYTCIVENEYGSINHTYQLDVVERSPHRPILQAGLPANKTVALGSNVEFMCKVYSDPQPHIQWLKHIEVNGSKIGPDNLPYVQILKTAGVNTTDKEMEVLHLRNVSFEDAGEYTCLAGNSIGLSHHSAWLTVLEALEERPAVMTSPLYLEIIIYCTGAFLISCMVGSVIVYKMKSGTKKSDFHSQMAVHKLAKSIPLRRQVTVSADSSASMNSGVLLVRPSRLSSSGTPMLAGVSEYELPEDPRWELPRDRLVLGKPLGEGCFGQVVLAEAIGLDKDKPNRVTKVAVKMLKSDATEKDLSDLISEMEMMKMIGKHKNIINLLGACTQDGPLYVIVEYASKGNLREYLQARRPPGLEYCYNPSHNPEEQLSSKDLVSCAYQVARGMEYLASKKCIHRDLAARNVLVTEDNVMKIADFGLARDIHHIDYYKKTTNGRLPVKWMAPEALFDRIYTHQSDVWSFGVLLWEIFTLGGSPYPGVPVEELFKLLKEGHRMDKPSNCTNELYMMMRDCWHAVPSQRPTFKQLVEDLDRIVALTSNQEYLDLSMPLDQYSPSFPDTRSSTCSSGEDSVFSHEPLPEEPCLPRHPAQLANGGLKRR
Protocol: as §1

CSF1R = molecular target: T6, CSF1R (Homo sapiens, UniProt P07333); experiment: KINOMEscan competition-binding assay
T6 construct: purchased DiscoverRx (KINOMEscan service)
Protocol: as §1

Erbb2 = molecular target: T7, Erbb2 (Homo sapiens, UniProt P04626); experiment: KINOMEscan competition-binding assay
T7 construct: purchased DiscoverRx (KINOMEscan service)
Protocol: as §1

FGFR4 = molecular target: T8, FGFR4 (Homo sapiens, UniProt P22455); experiment: KINOMEscan competition-binding assay
T8 construct: purchased DiscoverRx (KINOMEscan service)
T8 sequence (P22455 22-802): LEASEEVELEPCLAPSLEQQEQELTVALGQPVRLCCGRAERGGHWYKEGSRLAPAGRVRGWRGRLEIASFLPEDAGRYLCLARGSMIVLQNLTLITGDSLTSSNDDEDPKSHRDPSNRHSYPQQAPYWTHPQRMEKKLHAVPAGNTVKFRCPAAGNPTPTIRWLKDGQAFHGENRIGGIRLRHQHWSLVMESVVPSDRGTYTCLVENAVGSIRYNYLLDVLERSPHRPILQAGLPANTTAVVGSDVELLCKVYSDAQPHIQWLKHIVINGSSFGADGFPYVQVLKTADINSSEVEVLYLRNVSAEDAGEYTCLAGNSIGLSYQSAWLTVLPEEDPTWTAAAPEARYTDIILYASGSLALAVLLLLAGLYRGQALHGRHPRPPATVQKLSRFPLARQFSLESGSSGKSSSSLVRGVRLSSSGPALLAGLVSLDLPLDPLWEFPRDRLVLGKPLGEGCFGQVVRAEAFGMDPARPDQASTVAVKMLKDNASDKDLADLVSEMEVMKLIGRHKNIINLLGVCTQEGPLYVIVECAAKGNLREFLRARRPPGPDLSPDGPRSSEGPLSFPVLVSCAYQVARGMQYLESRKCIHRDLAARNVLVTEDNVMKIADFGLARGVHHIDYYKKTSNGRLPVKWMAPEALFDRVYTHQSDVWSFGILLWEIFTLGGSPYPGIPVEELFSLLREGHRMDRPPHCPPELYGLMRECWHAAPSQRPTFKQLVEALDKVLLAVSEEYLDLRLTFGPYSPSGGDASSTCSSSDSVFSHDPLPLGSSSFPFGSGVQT
Protocol: as §1

TYK2 = molecular target: T9, TYK2 (Homo sapiens, UniProt P29597); experiment: KINOMEscan competition-binding assay
T9 construct: purchased DiscoverRx (KINOMEscan service)
Protocol: as §1

FGFR3 = molecular target: T10, FGFR3 (Homo sapiens, UniProt P22607); experiment: KINOMEscan competition-binding assay
T10 construct: purchased DiscoverRx (KINOMEscan service)
Protocol: as §1

RPMI-8226 cells = experiment: MTT cell viability assay; assay type: cell-based; conditions: Homo sapiens, RPMI-8226 (myeloma), 72 h
Protocol: as §3

KMS-11 cells = experiment: MTT cell viability assay; assay type: cell-based; conditions: Homo sapiens, KMS-11 (myeloma), 72 h
Protocol: as §3

A549 cells = experiment: MTT cell viability assay; assay type: cell-based; conditions: Homo sapiens, A549 (lung), 72 h
Protocol: as §3

T24 cells = experiment: MTT cell viability assay; assay type: cell-based; conditions: Homo sapiens, T-24, T24 (bladder), 72 h
Protocol: as §3

[3] = tested on: FGFR-dependent versus FGFR-independent cells; experiment: MTT cell viability assay, mean over cell line panel; assay type: cell-based
HepG2 cells = experiment: MTT cell viability assay; assay type: cell-based; conditions: Homo sapiens, HepG2 (liver), 72 h
Protocol: as §3

[4] = tested on: LC3B-I to LC3B-II conversion in RT-112 cells; experiment: Western blot of autophagy marker LC3B; assay type: cell-based
Protocol: (§2) Cells were seeded and treated with indicated compounds at various concentrations for the indicated times. After treatment, cells were harvested by scraping with RIPA buffer containing protease inhibitors and phosphatase inhibitors (Roche Diagnostics Corp., Indianapolis, IN, USA). Total cell lysates were centrifuged at 13,000 g for 30 min and equal amounts of protein were separated by SDS–PAGE and immunoblotted with specific antibodies as previous described. The cells were allowed to recover for 24 h before following treatment. The small interfering RNA (siRNA) for Atg5 (HSS114103, HSS114104, HSS190366), and negative control (siCTL) were purchased from Invitrogen (Carlsbad, CA, USA). Transient transfection was performed by using lipofectamine 2000 according to the manufacture's instructions.

RT-112 cells [5] = experiment: SA-β-galactosidase staining (senescence); assay type: cell-based
Protocol: Cells were seeded in 6-well plates and treated with indicated agents for 24h. Senescence was measured by Senescence β-Galactosidase Staining Kit according to the manufacture's instruction (Cell Signaling Technology, Danvers, MA, USA).

HCT-116 cells = experiment: MTT cell viability assay; assay type: cell-based; conditions: Homo sapiens, HCT-116 (colorectal), 72 h
Protocol: as §3

[6] = tested on: phosphorylation of FGFR1, FGFR3, FRS2, ERK and AKT in RT-112 cells; experiment: Western blot of FGFR signaling; assay type: cell-based
Protocol: as §2

For `CCN1CCN(c2ccc(Nc3cc(N(C)C(=O)Nc4c(Cl)c(OC)cc(OC)c4Cl)ncn3)cc2)CC1` [BGJ-398, 3-(2,6-dichloro-3,5-dimethoxy-phenyl)-1-{6-[4-(4-ethyl-piperazin-1-yl)-phenylamino]-pyrimidin-4-yl}-1-methyl-urea], the “G0/G1 cell cycle arrest” value (RT-112 cells [1]) was “also observed”, the “accumulation of the sub-G1 phase (apoptotic cell death)” value (RT-112 cells [1]) was “induced pronounced apoptosis” and the IC50 (HUVEC) was 0.05 µM.
For `CCN1CCN(c2ccc(Nc3cc(N(C)C(=O)Nc4c(Cl)c(OC)c(Cl)c(OC)c4Cl)ncn3)cc2)CC1` [MPT0L090], the “Viability (% of control cells) Hep3B (5 μM)” value (Hep3B cells) was 47.1 % of control cells, the “Viability (% of control cells) SNU-16 (5 μM)” value (SNU-16 cells) was 27.5 % of control cells and the “Viability (% of control cells) PLC5/PRF/5 (5 μM)” value (PLC/PRF/5 cells) was 72.6 % of control cells. For the same compound, the “Viability (% of control cells) RT-112 (5 μM)” value (RT-112 cells [2]) was 52.6 % of control cells and the “Viability (% of control cells) RT-112 (10 μM)” value (RT-112 cells [2]) was 12.7 % of control cells.
`CCN1CCN(c2ccc(Nc3ncnc(N(C)C(=O)Nc4c(Cl)c(OC)c(Cl)c(OC)c4Cl)n3)cc2)CC1` [MPT0L145] was tested, and the “Viability (% of control cells) Hep3B (5 μM)” value (Hep3B cells) was 66.2 % of control cells, the IC50 (MDA-MB-231 cells) was 6.04 ± 0.26 µM and the IC50 (SNU-16 cells; Homo sapiens, SNU-16 (gastric)) was 0.65 ± 0.07 µM. The “Viability (% of control cells) SNU-16 (5 μM)” value (SNU-16 cells) was 36.9 % of control cells, the IC50 (FUDDLS cells) was 4.74 ± 0.49 µM and the IC50 (PLC/PRF/5 cells; Homo sapiens, PLC/PRF/5 (liver)) was 1.48 ± 0.3 µM. For the same compound, the “Viability (% of control cells) PLC5/PRF/5 (5 μM)” value (PLC/PRF/5 cells) was 20.6 % of control cells, the IC50 (MCF-7 cells) was 5.98 ± 0.68 µM and the IC50 (RT4 cells) was 4 ± 0.58 µM. The “tumor growth inhibition (% TGI)” value (RT-112 tumor xenografts; 5 mg/kg) was 61.4%, the “tumor growth inhibition (% TGI)” value (RT-112 tumor xenografts; 10 mg/kg) was 74.6% and the “safety from assessment of body weight loss after treatment” value (RT-112 tumor xenografts; compared with cisplatin) was “better safety”. It also gave a Kd (FGFR2) of 0.67 µM, a Kd (FLT3) of 1.3 µM and a Kd (VEGFR2) of 3.1 µM. For the same compound, the Kd (PDGFRB) was 0.68 µM, the Kd (FGFR1) was 0.13 µM and the Kd (CSF1R) was 0.34 µM. It also gave a Kd (Erbb2) of 10 µM, a Kd (FGFR4) of 7.5 µM and a Kd (TYK2) of 0.66 µM. The Kd (FGFR3) was 0.27 µM, the “G0/G1 cell cycle arrest” value (RT-112 cells [1]) was “induced G0/G1 cell cycle arrest to a dramatic extent” and the “accumulation of the sub-G1 phase (apoptotic cell death)” value (RT-112 cells [1]) was “did not promote accumulation of the sub-G1 phase”. The IC50 (RPMI-8226 cells) was 8.51 ± 1.77 µM, the IC50 (KMS-11 cells) was 2.05 ± 0.11 µM and the IC50 (A549 cells) was 5.97 ± 0.1 µM. The IC50 (T24 cells) was 6 ± 0.5 µM, the IC50 ([3]; mean over FGFR-dependent cell lines, read-out: mean IC50 in FGFR-dependent cells) was 1.83 µM and the IC50 ([3]; mean over FGFR-independent cell lines, read-out: mean IC50 in FGFR-independent cells) was 6.74 µM. For the same compound, the IC50 (HepG2 cells) was 1.18 ± 0.16 µM, the IC50 (RT-112 cells [2]; Homo sapiens, RT-112 (bladder)) was 1.63 ± 0.01 µM and the “Viability (% of control cells) RT-112 (5 μM)” value (RT-112 cells [2]) was 33.4 % of control cells. The “Viability (% of control cells) RT-112 (10 μM)” value (RT-112 cells [2]) was 8.5 % of control cells, the “conversion of LC3B-I to LC3B-II” value [4] was “induced the conversion of LC3B-I to LC3B-II in a time- and concentration-dependent manner” and the “senescence (β-galactosidase activity)” value (RT-112 cells [5]) was “no appreciable senescence”. The IC50 (HCT-116 cells) was 6.12 ± 0.01 µM, the “auto-phosphorylation of FGFR1 and FGFR3 and docking protein FRS2” value ([6]; 1 h) was “exerted inhibitory activity” and the “phosphorylation of ERK and AKT” value ([6]; 8 h) was “fully repressed”.
`COc1c(Cl)c(NC(=O)N(C)c2cc(-c3cccnc3)ncn2)c(Cl)c(OC)c1Cl` [MPT0L147] was tested, and the “Viability (% of control cells) RT-112 (10 μM)” value (RT-112 cells [2]) was 85.0 % of control cells.
In the case of `COc1c(Cl)c(NC(=O)N(C)c2cc(-c3cccc(C#N)c3)ncn2)c(Cl)c(OC)c1Cl` [MPT0L150], the “Viability (% of control cells) RT-112 (10 μM)” value (RT-112 cells [2]) is reported as 75.0 % of control cells.
`COc1c(Cl)c(NC(=O)N(C)c2cc(-c3cccc([N+](=O)[O-])c3)ncn2)c(Cl)c(OC)c1Cl` [MPT0L151] was tested, and the “Viability (% of control cells) RT-112 (10 μM)” value (RT-112 cells [2]) was 63.8 % of control cells.
For `COc1c(Cl)c(NC(=O)N(C)c2cc(-c3ccc(C#N)cc3)ncn2)c(Cl)c(OC)c1Cl` [MPT0L152], the “Viability (% of control cells) RT-112 (10 μM)” value (RT-112 cells [2]) was 55.3 % of control cells.
